These results are taken from ChEMBL document CHEMBL5032522, “N-2-(phenylamino) benzamide derivatives as novel anti-glioblastoma agents: Synthesis and biological evaluation” (Eur J Med Chem, 2021).

For series [1], the target named is T1, Prostaglandin G/H synthase 2 (Rattus norvegicus) (UniProt P35355).
T1 sequence (whole entry): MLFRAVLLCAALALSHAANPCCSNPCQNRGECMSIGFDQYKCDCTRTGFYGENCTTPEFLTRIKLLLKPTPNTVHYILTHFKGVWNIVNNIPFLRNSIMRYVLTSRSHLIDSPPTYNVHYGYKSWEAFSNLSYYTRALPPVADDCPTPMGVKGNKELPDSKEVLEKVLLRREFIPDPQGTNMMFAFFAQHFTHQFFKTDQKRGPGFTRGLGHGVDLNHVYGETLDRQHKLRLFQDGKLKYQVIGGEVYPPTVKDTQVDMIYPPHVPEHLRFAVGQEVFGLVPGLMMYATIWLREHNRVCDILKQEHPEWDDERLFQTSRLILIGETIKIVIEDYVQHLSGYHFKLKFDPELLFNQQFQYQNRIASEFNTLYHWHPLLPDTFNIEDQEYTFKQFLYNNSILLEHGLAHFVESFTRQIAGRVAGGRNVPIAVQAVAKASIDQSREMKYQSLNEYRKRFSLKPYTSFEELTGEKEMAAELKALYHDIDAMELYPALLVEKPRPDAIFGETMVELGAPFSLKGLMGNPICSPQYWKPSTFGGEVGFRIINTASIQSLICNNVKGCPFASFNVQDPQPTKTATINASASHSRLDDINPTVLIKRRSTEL
The series can be described thus: In vivo inhibition of COX2 in ip dosed orthotopic Sprague-Dawley rat model inoculated with C6 cells assessed as reduction in PGE2 production by ELISA. Format: functional, organism-based. (In general: An ELISA detects its analyte on a solid surface through an enzyme-linked reagent.)

The subject of series [2] is Rattus norvegicus. The series can be described thus: In vivo inhibition of STAT3 activation in ip dosed orthotopic Sprague-Dawley rat model inoculated with C6 cells assessed as decrease in p-STAT3 in tumor tissue by Western blot analysis. Format: functional, organism-based. (A western blot detects proteins with antibodies after separation by electrophoresis.)
The species named for series [3] is Rattus norvegicus. The experiment in a line: Upregulation of E-cadherin protein expression in Sprague-Dawley rat orthotopic model inoculated with C6 cells by Western blot analysis. Type of series: functional.
Series [4] in a line: Acute toxicity in Kunming mouse assessed as death at 300 mg/kg, ip administered as single dose observed every day for 14 days. Type of series: organism-based. The note with it: in vivo, 336 h, time 14 day.
Series [5] deals with U-87 MG. The series can be described thus: Antitumor activity against human U-87 MG cells xenografted in BALB/c nude mouse assessed as reduction in tumor weight at 20 mg/kg, ip bid measured every 3 days for 25 days. The note with it: U-87MG ATCC, time 25.0 day. Format: functional, organism-based.
Series [6] is filed under the species Rattus norvegicus. The series can be described thus: Downregulation of MMP-9 protein expression in Sprague-Dawley rat orthotopic model inoculated with C6 cells by Western blot analysis. Format: functional.
The subject of series [7] is U-87 MG. The series can be described thus: Antitumor activity against human U-87 MG cells xenografted in BALB/c nude mouse assessed as reduction in Ki67 expression in tumor at 20 mg/kg, ip bid measured every 3 days for 25 days by immunohistochemical analysis. Type of series: functional, organism-based. The settings on record: U-87MG ATCC, time 25.0 day. For orientation: In xenograft studies the graft and the host belong to different species.

Series [8] in a line: Toxicity in BALB/c mouse xenografted with human U-87 MG cells assessed as reduction in body weight at 20 mg/kg, ip bid measured after 25 days. The note with it: in vivo, 600 h, time 25 day. Type of series: organism-based.
In series [9] the test system is U-87 MG. The experiment in a line: Antitumor activity against human U-87 MG cells xenografted in BALB/c nude mouse assessed as tumor growth inhibition at 20 mg/kg, ip bid measured every 3 days for 25 days relative to control. Format: functional, U-87MG ATCC. The settings on record: 600 h, time 25 day, read-out: TGI.

Active and inactive are the calls of the source. The rule behind the calls is not given here.

On to `Cc1c(Cl)cccc1Nc1ccccc1C(=O)Nc1ccc2c(c1)OCO2`, for which the inhibition result in series [1] is “Active”.
As for `COc1ccc(NC(=O)c2ccccc2Nc2cccc(Cl)c2C)cc1`, the inhibition entry in series [2] and in [1] was “Active” in each case. Besides, the outcome in [3], in [5], in series [6] and in [7] was Active. Further, the Activity entry in series [4] and in series [8] was “Non-Toxic” in each case. Besides, the inhibition in vivo at 20 mg/kg in series [9] is 69.4%.
